Test results taken from patent publication US7846747B2, “Biocatalytic solgel microarrays” (Rensselaer Polytechnic Institute, priority 2001, dated 2010).

Tested on: MCF7 breast cancer cells

O=P1(N(CCCl)CCCl)NCCCO1 (stereo not shown) [cyclophosphamide]
number of dead cells and ratio of dead to live cells: significant increase in the number of dead cells
